Assay [1] addresses T1, AtGSDA (Arabidopsis thaliana, UniProt Q94BU8).
T1 construct: gene GSDA; SF form, Ser29-Tyr185, N-terminal 6xHis tag (pET-28a), recombinant, homodimer, zinc enzyme; full-length in pET-21b also made
Briefly: thermal shift (dye); deamination by mass spectrometry. Format: biochemical. The conditions noted are these: printed as nearly 2; turned over to 2'-O-methylxanthosine.

The target of assay [2] is T1, AtGSDA. Briefly: thermal shift; deamination by mass spectrometry. Format: biochemical. The conditions noted are these: weak substrate; crystal soak reached product stage.
The target of assay [3] is T1, AtGSDA. The assay is described as follows: crystal structure; thermal shift. Format: binding. The conditions noted are these: active site, described as competitive inhibitor.
For assay [4], the target named is T2, GDA (Escherichia coli, UniProt P76641).
T2 construct: gene guaD; recombinant, purified as in a cited protocol
T2 sequence (P76641 1-439): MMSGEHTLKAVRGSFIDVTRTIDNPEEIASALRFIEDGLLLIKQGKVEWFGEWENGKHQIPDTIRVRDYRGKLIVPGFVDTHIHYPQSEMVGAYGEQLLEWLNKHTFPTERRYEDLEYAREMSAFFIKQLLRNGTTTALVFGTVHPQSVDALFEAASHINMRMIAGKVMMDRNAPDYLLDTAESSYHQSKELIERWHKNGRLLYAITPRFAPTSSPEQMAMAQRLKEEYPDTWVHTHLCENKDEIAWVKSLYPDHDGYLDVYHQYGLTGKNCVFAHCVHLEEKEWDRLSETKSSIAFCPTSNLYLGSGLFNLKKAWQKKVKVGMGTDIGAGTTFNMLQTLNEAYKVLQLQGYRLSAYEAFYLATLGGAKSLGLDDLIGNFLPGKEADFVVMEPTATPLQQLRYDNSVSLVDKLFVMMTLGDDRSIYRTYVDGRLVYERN
Briefly: deamination by mass spectrometry; thermal shift. The assay is classed as biochemical. The conditions noted are these: enzyme:substrate 1:100; 50 mM sodium bicarbonate, neutral.

Assay [5] concerns the target T3, AtGSDA (Arabidopsis thaliana, UniProt Q94BU8, Y185K).
T3 construct: gene GSDA; SF form, Ser29-Tyr185, N-terminal 6xHis tag (pET-28a), recombinant, homodimer, zinc enzyme; full-length in pET-21b also made
The assay is described as follows: thermal shift. Format: binding.

Assay [6] addresses T4, AtGSDA (Arabidopsis thaliana, UniProt Q94BU8, Y185E).
T4 construct: gene GSDA; SF form, Ser29-Tyr185, N-terminal 6xHis tag (pET-28a), recombinant, homodimer, zinc enzyme; full-length in pET-21b also made
The assay is described as follows: thermal shift. The assay is classed as binding.

Assay [7] concerns the target T5, AtGSDA (Arabidopsis thaliana, UniProt Q94BU8, Y185F).
T5 construct: gene GSDA; SF form, Ser29-Tyr185, N-terminal 6xHis tag (pET-28a), recombinant, homodimer, zinc enzyme; full-length in pET-21b also made
The assay is described as follows: crystal structure; thermal shift. Format: binding. The conditions noted are these: one ligand per dimer, substrate form.

Assay [8] addresses T6, AtGSDA (Arabidopsis thaliana, UniProt Q94BU8, E82Q).
T6 construct: gene GSDA; SF form, Ser29-Tyr185, N-terminal 6xHis tag (pET-28a), recombinant, homodimer, zinc enzyme; full-length in pET-21b also made
The assay is described as follows: thermal shift. The assay is classed as binding. The following applies: catalytically impaired.

Assay [9] addresses T5, AtGSDA. The assay is described as follows: thermal shift. The assay is classed as binding.
The target of assay [10] is T1, AtGSDA. Briefly: thermal shift (dye); crystal structure (product formed from soaked guanosine). Format: binding. The conditions noted are these: printed as nearly 2; zinc enzyme; active site.

T1 sequence (Q94BU8 29-185): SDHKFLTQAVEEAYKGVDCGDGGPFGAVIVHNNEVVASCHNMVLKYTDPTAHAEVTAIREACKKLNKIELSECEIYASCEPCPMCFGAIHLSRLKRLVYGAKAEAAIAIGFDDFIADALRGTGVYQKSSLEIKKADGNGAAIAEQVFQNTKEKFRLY
T4 sequence (Q94BU8 29-185 Y185E): as the sequence (Q94BU8 29-185) above, with Y157E counted along it
T5 sequence (Q94BU8 29-185 Y185F): as the sequence (Q94BU8 29-185) above, with Y157F counted along it
T6 sequence (Q94BU8 29-185 E82Q): as the sequence (Q94BU8 29-185) above, with E54Q counted along it
T3 sequence (Q94BU8 29-185 Y185K): as the sequence (Q94BU8 29-185) above, with Y157K counted along it

`CO[C@@H]1[C@H](O)[C@@H](CO)O[C@H]1n1cnc2c(=O)[nH]c(N)nc21` [compound 1, 2′-O-methylguanosine]: the ΔTm in assay [1] is ~ 2 °C.

As to `CNc1nc2c(ncn2[C@@H]2O[C@H](CO)[C@@H](O)[C@H]2O)c(=O)[nH]1` [compound 2, N^2-methylguanosine], in [2], the ΔTm entry is on record as “the inhibitors Ado/isoG or the weak substrate N^2-mG normally lacked one or two functional groups”.

Regarding `Nc1ncnc2c1ncn2[C@@H]1O[C@H](CO)[C@@H](O)[C@H]1O` [compound 3, adenosine], in assay [3], the ΔTm result was “The ligand adenosine (Ado) maintained its interactions with Ala81 and Asn69 via N6”.

As for `O=c1[nH]cnc2c1ncn2[C@@H]1O[C@H](CO)[C@@H](O)[C@H]1O` [compound 4, inosine], the ΔTm result in [3] is recorded as “The binding position was almost unchanged when compared to Gua bound by AtGSDA”.

Consider `Nc1nc(=O)[nH]c2c1ncn2[C@@H]1O[C@H](CO)[C@@H](O)[C@H]1O` [compound 5, isoguanosine], for which, in assay [3] (2-keto group ligates zinc), the ΔTm entry is “its binding mode was similar to that of Xan (Figure 3c, PDB 7DM6)”.

As for `Nc1nc2[nH]cnc2c(=O)[nH]1` [guanine], the ΔTm result in assay [4] is recorded as “GDA showed excellent deamination capability by converting almost all of the guanine substrate”.

`Nc1nc2c(ncn2[C@@H]2O[C@H](CO)[C@@H](O)[C@H]2O)c(=O)[nH]1` [guanosine]: the ΔTm entry in [5] was “the Y185K and E82Q mutants showed differentially reduced affinities”; in [6], “WT and Y185F/E showed similar binding affinities toward the ligands”; in [7], “the Y185F-Gua structure indicated that only one Gua molecule was bound”; in assay [8] it was “the Y185K and E82Q mutants showed differentially reduced affinities”.

As to `O=c1[nH]c(=O)c2ncn([C@@H]3O[C@H](CO)[C@@H](O)[C@H]3O)c2[nH]1` [xanthosine], the ΔTm entry in assay [6] is “WT and Y185F/E showed similar binding affinities toward the ligands”; in assay [9], “WT and Y185F/E showed similar binding affinities toward the ligands”; in assay [10], ~ 2 °C.
